In patent US5122523A, “N-acylamino acid derivatives and their pharmaceutical compositions” (Banyu Pharmaceutical Co., Ltd., priority 1987, dated 1992):

The compounds below were run against T1, human plasma renin (Homo sapiens, UniProt P00797) (assay: Renin inhibiting activities (human plasma, angiotensin I by radioimmunoassay)). Settings: pH7.4, 37° C., one hour.
T1 construct: from tissue; host or cells: human plasma
T1 sequence (P00797 67-406): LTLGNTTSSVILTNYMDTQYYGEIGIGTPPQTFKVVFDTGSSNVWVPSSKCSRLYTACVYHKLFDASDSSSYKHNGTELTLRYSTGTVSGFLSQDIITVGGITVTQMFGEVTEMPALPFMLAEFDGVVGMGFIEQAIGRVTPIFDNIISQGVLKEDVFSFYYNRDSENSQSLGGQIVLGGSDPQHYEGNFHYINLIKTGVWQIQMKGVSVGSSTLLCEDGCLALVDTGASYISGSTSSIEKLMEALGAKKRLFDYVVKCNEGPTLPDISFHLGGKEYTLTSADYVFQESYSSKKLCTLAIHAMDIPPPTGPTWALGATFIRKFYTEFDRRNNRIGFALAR
Type: biochemical
Description: TEST EXAMPLE 1: Renin inhibiting activities
To 156 μl of a 0.2M sodium phosphate buffer solution (pH7.4), 40 μl of a solution mixture of 34 mM 8-hydroxyquinoline and 100 mM disodium ethylenediamine tetraacetate, 4 μl of dimethyl sulfoxide or a dimethyl sulfoxide solution of an inhibitor and 200 μl of human plasma were added and reacted at 37° C. for one hour. Then, pepstatin was added thereto to terminate the reaction, and the amount of the resulting angiotension I was measured by radio immunoassay whereby the inhibiting activity was determined.

| Compound | IC50 |
| --- | --- |
| CCCC[C@H](NC(=O)[C@@H](CSc1ncccn1)Cc1cccc2ccccc12)C(=O)N[C@@H](CC(C)C)[C@@H](O)CC(CC)C(=O)NCC(C)C (mixture of isomers) [Example 6, (2RS,4S,5S)-5-{L-N-[(2S)-3-(pyrimidin-2-yl)thio-2-(1-naphthylmethyl)propionyl]norleucyl}amino-2-ethyl-4-hydroxy-7-methyloctanoic acid isobutylamide] | 1.6 nM |
| CCCC[C@H](NC(=O)C(Cc1cccc2ccccc12)CS(=O)(=O)CC)C(=O)N[C@@H](CC(C)C)[C@@H](O)CC(CC)C(=O)NCC(C)C (single isomer, unassigned) [Example 1, (2RS,4S,5S)-5-{L-N-[(2R or S)-3-ethylsulfonyl-2-(1-naphthylmethyl)propionyl]norleucyl}amino-2-ethyl-4-hydroxy-7-methyloctanoic acid isobutylamide] | 0.5 nM |
| CCCC[C@H](NC(=O)[C@@H](Cc1cccc2ccccc12)CS(=O)(=O)CC)C(=O)N[C@@H](CC(C)C)[C@@H](O)C[C@@H](CC)C(=O)NCCN1CCOCC1 (single isomer, unassigned) [Example 8, (2R or S,4S,5S)-5-{L-N-[(2R or S)-3-ethylsulfonyl-2-(1-naphthylmethyl)propionyl]norleucyl}amino-2-ethyl-4-hydroxy-7-methyloctanoic acid 2-morpholinoethylamide] | 1.5 nM |
| CCC(C[C@H](O)[C@H](CC(C)C)NC(=O)[C@H](Cc1c[nH]cn1)NC(=O)[C@H](Cc1cccc2ccccc12)CS(=O)(=O)CC)C(=O)NCC(C)C (mixture of isomers) [Example 15, (2RS,4S,5S)-5-{L-N^α -[(2S)-3-ethylsulfonyl-2-(1-naphthylmethyl)propionyl]histidyl}amino-2-ethyl-4-hydroxy-7-methyloctanoic acid isobutylamide] | 0.5 nM |
| CCC(C[C@H](O)[C@H](CC(C)C)NC(=O)[C@H](Cc1c[nH]cn1)NC(=O)[C@H](Cc1cccc2cccnc12)CS(=O)(=O)CC)C(=O)NCC(C)C (stereo partly drawn) [Example 11, (2RS,4S,5S)-5-{L-N^α -[2(S)-3-ethylsulfonyl-2-(8-quinolylmethyl)propionyl]histidyl}amino-2-ethyl-4-hydroxy-7-methyloctanoic acid isobutylamide] | 3.1 nM |
| CCCC[C@H](NC(=O)[C@H](Cc1cccc2ccccc12)C[S+]([O-])c1ncccn1)C(=O)N[C@@H](CC(C)C)[C@@H](O)CC(CC)C(=O)NCC(C)C (mixture of isomers) [Example 7, (2RS,4S,5S)-5-{L-N-[(2S)-3-(pyrimidin-2-yl)sulfinyl-2-(1-naphthylmethyl)propionyl]norleucyl}amino-2-ethyl-4-hydroxy-7-methyloctanoic acid isobutylamide] | 0.83 nM |
| CCCC[C@H](NC(=O)[C@H](Cc1cccc2ccccc12)CS(=O)(=O)CC)C(=O)N[C@@H](CC(C)C)[C@@H](O)[C@@H](O)CN1CCOCC1 [Example 19, (2S,3R,4S)-4-{L-N-[(2S)-3-ethylsulfonyl-2-(1-naphthylmethyl)propionyl]norleucyl}amino-6-methyl-1-morpholino-2,3-heptanediol] | 8.3 nM |
| CCCC[C@H](NC(=O)C(CCCSCC)Cc1cccc2ccccc12)C(=O)N[C@@H](CC(C)C)[C@@H](O)CC(CC)C(=O)NCC(C)C (single isomer, unassigned) [Example 12, (2RS,4S,5S)-5-{L-N-[(2R or S)-5-ethylthio-2-(1-naphthylmethyl)pentanoyl]norleucyl}amino-2-ethyl-4-hydroxy-7-methyloctanoic acid isobutylamide] | 9.7 nM |
| CCCC[C@H](NC(=O)[C@H](Cc1cccc2ccccc12)CS(=O)(=O)CC)C(=O)N[C@@H](CC1CCCCC1)C(O)C(O)CSC (single isomer, unassigned) [Example 21, (2RS,3R or S,4S)-4-{L-N-[(2S)-3-ethylsulfonyl-2-(1-naphthylmethyl)propionyl]norleucyl}amino-5-cyclohexyl-1-methylthio-2,3-pentanediol] | 8.9 nM |
| CCCC[C@H](NC(=O)C(Cc1cccc2ccccc12)CS(=O)(=O)c1nnnn1C)C(=O)N[C@@H](CC(C)C)[C@@H](O)C[C@H](CC)C(=O)NCC(C)C (single isomer, unassigned) [Example 4, (2S,4S,5S)-5-{L-N-[(2R or S)-3-(1-methyltetrazol-5-yl)sulfonyl-2-(1-naphthylmethyl)propionyl]norleucyl}amino-2-ethyl-4-hydroxy-7-methyloctanoic acid isobutylamide] | 0.96 nM |
| CCCC[C@H](NC(=O)[C@H](Cc1cccc2cccnc12)CS(=O)(=O)CC)C(=O)N[C@@H](CC(C)C)[C@@H](O)CC(CC)C(=O)NCC(C)C (mixture of isomers) [Example 10, (2RS,4S,5S)-5-{L-N-[(2S)-3-ethylsulfonyl-2-(8-quinolylmethyl)propionyl]norleucyl}amino-2-ethyl-4-hydroxy-7-methyloctanoic acid isobutylamide] | 2 nM |
| CCCC[C@H](NC(=O)C(Cc1ccccc1)CS(=O)(=O)C1CCCC1)C(=O)N[C@@H](CC1CCCCC1)[C@@H](O)[C@@H](O)CN1CCOCC1 (single isomer, unassigned) [Example 51(B), (2S,3R,4S)-4-{L-N-[(2S or R)-3-cyclopentanesulfonyl-2-benzylpropionyl]norleucyl}amino-5-cyclohexyl-1-morpholino-2,3-pentanediol] | 2 nM |
| CC(C)[S+]([O-])C[C@@H](Cc1cccc2ccccc12)C(=O)N[C@@H](Cc1c[nH]cn1)C(=O)N[C@@H](CC1CCCCC1)[C@@H](O)[C@@H](O)CN1CCOCC1 (stereo partly drawn) [Example 35, (2S,3R,4S)-4-{L-N^α -[(2S)-3-isopropylsulfinyl-2-(1-naphthylmethyl)propionyl]histidyl}amino-5-cyclohexyl-1-morpholino-2,3-pentanediol] | 5.9 nM |

More lines, now with the values ahead:

| IC50 | Compound |
| --- | --- |
| 5.9 nM | CCCC[C@H](NC(=O)[C@H](Cc1cccc2ccccc12)CS(=O)(=O)C(C)(C)C)C(=O)N[C@@H](CC1CCCCC1)[C@@H](O)[C@@H](O)CN1CCOCC1 [Example 38, (2S,3R,4S)-4-{L-N-[(2S)-3-tert-butylsulfonyl-2-(1-naphthylmethyl)propionyl]norleucyl}amino-5-cyclohexyl-1-morpholino-2,3-pentanediol] |
| 2.3 nM | CCCC[C@H](NC(=O)[C@H](Cc1cccc2ccccc12)CS(=O)(=O)Cc1ccco1)C(=O)N[C@@H](CC1CCCCC1)[C@@H](O)[C@@H](O)CN1CCOCC1 [Example 47, (2S,3R,4S)-4-{L-N-[(2S)-3-furfurylsulfonyl-2-(1-naphthylmethyl)propionyl]norleucyl}amino-5-cyclohexyl-1-morpholino-2,3-pentanediol] |
| 3.8 nM | CCCC[C@H](NC(=O)[C@H](Cc1ccccc1)CS(=O)(=O)c1ncccn1)C(=O)N[C@@H](CC1CCCCC1)[C@@H](O)[C@@H](O)CN1CCOCC1 [Example 44, (2S,3R,4S)-4-{L-N-[(2S)-2-benzyl-3-(pyrimidin-2-yl)sulfonylpropionyl]norleucyl}amino-5-cyclohexyl-1-morpholino-2,3-pentanediol] |
| 1.7 nM | CCCC[C@H](NC(=O)[C@H](Cc1cccc2ccccc12)CS(=O)(=O)c1ncccn1)C(=O)N[C@@H](CC1CCCCC1)[C@@H](O)[C@@H](O)CN1CCOCC1 [Example 41, (2S,3R,4S)-4-{L-N-[(2S)-2-(1-naphthylmethyl)-3-(pyrimidin-2-yl)sulfonylpropionyl]norleucyl}amino-5-cyclohexyl-1-morpholino-2,3-pentanediol] |
| 6.1 nM | CCCC[C@H](NC(=O)[C@H](Cc1cccc2ccccc12)C[S+]([O-])CC)C(=O)N[C@@H](CC1CCCCC1)[C@@H](O)[C@@H](O)CN1CCOCC1 (stereo partly drawn) [Example 49(A), (2S,3R,4S)-4-{L-N-[(2S)-3-ethylsulfinyl-2-(1-naphthylmethyl)propionyl]norleucyl}amino-5-cyclohexyl-1-morpholino-2,3-pentanediol] |
| 5.3 nM | CCCC[C@H](NC(=O)[C@@H](CSc1ncccn1)Cc1cccc2ccccc12)C(=O)N[C@@H](CC1CCCCC1)[C@@H](O)[C@@H](O)CN1CCOCC1 [Example 40, (2S,3R,4S)-4-{L-N-[(2S)-2-(1-naphthylmethyl)-3-(pyrimidin-2-yl)thiopropionyl]norleucyl}amino-5-cyclohexyl-1-morpholino-2,3-pentanediol] |
| 2.7 nM | CCCC[C@H](NC(=O)C(Cc1cccc2ccccc12)CS(=O)(=O)CCO)C(=O)N[C@@H](CC1CCCCC1)[C@@H](O)[C@@H](O)CN1CCOCC1 (single isomer, unassigned) [Example 36, (2S,3R,4S)-4-{L-N-[(2S or R)-3-(2-hydroxyethyl)sulfonyl-2-(1-naphthylmethyl)propionyl]norleucyl}amino-5-cyclohexyl-1-morpholino-2,3-pentanediol] |
| 3.6 nM | CCCC[C@H](NC(=O)[C@H](Cc1cccc2ccccc12)C[S+]([O-])c1ncccn1)C(=O)N[C@@H](CC1CCCCC1)[C@@H](O)[C@@H](O)CN1CCOCC1 (single isomer, unassigned) [Example 42] |
| 4.2 nM | CCS(=O)(=O)C[C@@H](Cc1cccc2ccccc12)C(=O)N[C@@H](Cc1c[nH]cn1)C(=O)N[C@@H](CC1CCCCC1)[C@@H](O)[C@@H](O)CN1CCOCC1 [Example 31, (2S,3R,4S)-4-{L-N^α -[(2S)-3-ethylsulfonyl-2-(1-naphthylmethyl)propionyl]histidyl}amino-5-cyclohexyl-1-morpholino-2,3-pentanediol] |
